Experimental data from patent US20220363681A1, “OXO SIX-MEMBERED CYCLOPYRIMIDINE COMPOUND, PREPARATION METHOD AND MEDICAL USE THEREOF” (GenFleet Therapeutics (Shanghai) Inc., priority 2019, published 2022).

Columns and labels:
[1] = tested on: Kras G12C mutant NCI-H358 cells; test: Cell proliferation inhibition experiment, 3D cell model, CellTiter-Glo (H358); format: cell-based, human; conditions: Homo sapiens, NCI-H358, 120 h, NCI-H358, 2% FBS RPMI-1640, 384-well sphere plate, cultured 5 days with compound
Method: (§1) NCI-H358 was a human non-small cell lung cancer cell line with Kras G12C mutation, cultured in 10% FBS RPMI-1640 medium; A549 was a human lung adenocarcinoma cell line with Kras G12S mutation, cultured in 10% FBS F-12K medium. The cells in the logarithmic growth phase was taken, digested with trypsin EDTA, collected and counted, and H358 was adjusted to 1.8E4 cells/ml using 2% FBS RPMI-1640 medium, and A549 was adjusted to 8.9E3 cells/ml using 2% FBS F-12K medium; 800 (45 μl) H358 or 400 (45 μl) A549 cells were seeded in a 384-well sphere plate respectively, cultured overnight to establish a 3D cell model. DMSO was used to prepare 1000× compound 3.16-fold gradient concentration stock solution, and 2% FBS medium was used to dilute 100-fold to 10× compound stock solution. On the second day after cell seeding, 5 μl 10× compound stock solution was added to each cell culture well, the final concentration was 1×, and DMSO content was 0.1%. DMSO was used as the experimental control (control) and 2% FBS medium as the blank control (blank). After the compound and cells were added and cultured for 5 days, 25 μl CellTiter-Glo working solution was added to each well, mixed at 400 rpm and incubated for 30 minutes. After standing 30 minutes at room temperature, 40 μl of the mixture was transfered to a 384-well plate with a non-transparent white bottom, the luminescence chemiluminescence value was read, and the cells proliferation inhibition rate IR (%)=(RLU control-RLU compound)/(RLU control-RLU blank)×100% was calculated, Prism 6 four-parameter method was used to fit the compound's gradient dilution concentration and the corresponding cell proliferation inhibition rate, and the IC50 value was calculated.

[2] = tested on: A549 cells (Kras G12S mutation); test: Cell proliferation inhibition experiment, 3D cell model, CellTiter-Glo (A549); format: cell-based, human; conditions: Homo sapiens, A549, 120 h, A549, 2% FBS F-12K, 384-well sphere plate, cultured 5 days with compound
Method: as §1

IC50 [1]: 83 nM | IC50 [2]: > 30000 nM
SMILES: C=CC(=O)N1CCN(c2nc(OC[C@@H]3CCCN3C)nc3c(OC4CC4)c(-c4c(C)ccc5[nH]ncc45)c(OC)cc23)CC1 [Compound Z49, 1-(4-(8-cyclopropoxy-6-methoxy-7-(5-methyl-1H-indazol-4-yl)-2-(((S)-1-methylpyrrolidin-2-yl)methoxy)quinazolin-4-yl)piperazin-1-yl)prop-2-en-1-one]
